Reference: article PMC9783898 (Pharmaceutics, 2022)
Like-named read-outs stand apart in the source and are kept apart here.

Columns and labels:
[1] = tested on: HCC1937 (human breast carcinoma); experiment: Cytotoxicity assay (MTT, 48 h) on HCC1937; type: cell-based
[2] = tested on: MES-SA (Human uterine sarcoma); experiment: Cytotoxicity assay (MTT, 48 h) on MES-SA; type: cell-based
Protocol: Cells were cultured in modified McCoy’s 5a medium supplemented with 10% fetal bovine serum. […] After reaching approx. 90% confluence, cells were detached using 0.05% trypsin/EDTA solution and counted. Then, cells were plated at optimal density for the logarithmic phase of growth. MES-SA cells were seeded onto 96-well plate at a concentration of 3000 cells per well. Blank control wells were left cell-free for background absorption measurement. […] Control cells were incubated with media without compounds. MTT assays were performed after 48 h incubation. Briefly, culture medium was removed from each well and replaced with fresh medium with MTT (0.2 mg/mL). […] The plate was further shaken for 15 min at room temperature, and the optical density at 540 nm of the wells was measured using multichannel spectrophotometer (Thermo Scientific Multiskan EX, Waltham, MA, USA). The percent of alive cells were calculated according to the formula 100∙T/C, where T is the optical density of a test well after 48 h exposure to compound, and C is control cells optical density after 48 h. All compounds were tested in three independent experiments. The IC50 values were calculated using Graph Pad Prism (GraphPad, Inc., La Jolla, CA, USA).

PARP1 = PARP1 (Homo sapiens, UniProt P09874); experiment: PARP1 inhibition activity; type: biochemical
MES-SA/Dx-5 cells [3] = tested on: MES-SA/Dx-5 cells; parameters: method as in doi:10.1039/D2NJ00340F; details: IC50 of DOX/IC50 of DOX with compound at IC20, MES-SA/Dx-5; cited from earlier work
[4] = tested on: MCF-7 (human adenocarcinoma); experiment: Cytotoxicity assay (MTT, 48 h) on MCF-7; type: cell-based
[5] = tested on: H9C2 (rat cardiomyocytes); experiment: Cytotoxicity assay (MTT, 48 h) on H9C2; type: cell-based; details: read-out: H9C2, IC50
[6] = tested on: MES-SA/Dx-5 (doxorubicin resistant human uterine sarcoma); parameters: method as in doi:10.1039/D2NJ00340F; details: MTT, cited from earlier work
MES-SA/Dx-5 cells [7] = experiment: Reversal of doxorubicin resistance (doxorubicin cytotoxicity in presence of compound at IC20); type: cell-based, human; details: IC50 of DOX/IC50 of DOX with a conjugate at IC20, MES-SA/Dx-5
Protocol: To calculate reversal fold (RF) values, doxorubicin cytotoxicity was determined in the presence of the tested compounds at their corresponding IC20 concentration as described above. RF values were calculated as IC50 of DOX/IC50 of DOX in the presence of a tested compound.
Next, the cytotoxicity of 5a–c was evaluated on a doxorubicin resistant human uterus sarcoma cell line (MES-SA/Dx-5) using the MTT assay (Table 2). […] To explore the potential of the novel compounds to reverse doxorubicin resistance, cytotoxicity of doxorubicin was evaluated in the presence of 5a–c at their corresponding IC20 concentrations.

[8] = tested on: MES-SA/Dx-5 (doxorubicin resistant human uterine sarcoma); experiment: cells; details: for IC20: MES-SA/Dx5, read-out: MES-SA/Dx5 IC20
[9] = tested on: MES-SA/Dx-5 (doxorubicin resistant human uterine sarcoma); details: MES-SA/Dx-5 vs MES-SA
[10] = Homo sapiens, HCC1937, 48 h, read-out: HCC1937, IC50, MTT, 48 h, BRCA1-deficient breast carcinoma
[11] = Homo sapiens, MES-SA, read-out: MES-SA, IC50, MTT, 48 h
[12] = PARP1 inhibiting activity, Table 1, read-out: PARP1
[13] = Homo sapiens, MCF7, 48 h, read-out: MCF-7, IC50, MTT, 48 h
[14] = MES-SA/Dx5, read-out: MES-SA/Dx5 IC50

Sequence of PARP1 (P09874 whole entry, species assumed): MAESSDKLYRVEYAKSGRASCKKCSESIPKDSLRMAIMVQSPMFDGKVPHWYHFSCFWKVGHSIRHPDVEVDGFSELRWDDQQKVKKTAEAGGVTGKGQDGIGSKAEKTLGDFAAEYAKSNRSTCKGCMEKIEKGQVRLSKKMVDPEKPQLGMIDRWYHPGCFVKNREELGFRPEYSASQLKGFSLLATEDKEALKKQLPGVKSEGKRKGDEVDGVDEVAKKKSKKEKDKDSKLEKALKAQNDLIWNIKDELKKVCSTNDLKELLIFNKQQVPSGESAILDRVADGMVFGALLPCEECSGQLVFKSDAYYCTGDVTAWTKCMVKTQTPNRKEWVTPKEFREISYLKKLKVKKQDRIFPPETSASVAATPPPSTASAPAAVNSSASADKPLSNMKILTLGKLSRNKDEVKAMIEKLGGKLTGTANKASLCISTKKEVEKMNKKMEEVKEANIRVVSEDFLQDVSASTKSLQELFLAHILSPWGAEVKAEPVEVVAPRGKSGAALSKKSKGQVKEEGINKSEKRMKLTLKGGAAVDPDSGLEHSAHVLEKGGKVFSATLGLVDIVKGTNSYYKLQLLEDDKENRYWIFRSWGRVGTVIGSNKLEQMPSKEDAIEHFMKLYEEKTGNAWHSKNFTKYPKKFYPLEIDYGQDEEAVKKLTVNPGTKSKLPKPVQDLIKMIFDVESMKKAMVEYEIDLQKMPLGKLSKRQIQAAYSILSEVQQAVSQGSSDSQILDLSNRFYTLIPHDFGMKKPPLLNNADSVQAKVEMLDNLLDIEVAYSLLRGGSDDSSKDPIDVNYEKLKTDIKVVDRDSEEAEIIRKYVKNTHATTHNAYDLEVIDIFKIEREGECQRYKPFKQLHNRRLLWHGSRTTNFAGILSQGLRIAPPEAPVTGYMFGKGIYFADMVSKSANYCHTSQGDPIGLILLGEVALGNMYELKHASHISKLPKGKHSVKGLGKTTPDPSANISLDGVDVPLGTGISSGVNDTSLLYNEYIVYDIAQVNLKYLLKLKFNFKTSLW

Compound | IC50 [1, 10] [µM] | IC50 [2, 11] [µM] | IC50 (PARP1; [12]) [nM] | IC50 [4, 13] [µM] | IC50 ([5]; H9c2, 48 h) [µM] | RF (reversal fold) (MES-SA/Dx-5 cells [7]) | IC20 [8] [nM] | IC50 [8, 14] [µM] | melting point [°C] | further results
Cn1c(=O)c2c(Br)c(CN3CCCNCC3)[se]c2c2ccccc21 [Compound 1] | 17 to 21 | 17 to 21 | > 1000 | 17 to 21 | > 300 | – | – | – | – | IC50 ([1]; read-out: HCC1937, IC50, MTT, 48 h, BRCA1-deficient breast carcinoma): 19.9 ± 4.8 µM; IC50 ([2]; read-out: MES-SA, IC50, MTT): 21 ± 3.9 µM; PARP1 activity (PARP1; at 1 µM concentration): did not decrease PARP1 activity; RF (reversal fold) (MES-SA/Dx-5 cells [3]): 4.72 ± 0.63; IC50 ([4]; read-out: MCF-7, IC50, MTT, 48 h): 17.1 ± 1.9 µM; IC20 ([6]; read-out: MES-SA/Dx5 IC20): 7.96 ± 3.03 µM; IC50 ([6]; read-out: MES-SA/Dx5 IC50): 21.1 ± 2.49 µM
Cn1c(=O)c2c(Br)c(CN3CCCN(C(=O)CCC(=O)N4CCN(C(=O)c5cc(Cc6n[nH]c(=O)c7ccccc67)ccc5F)CC4)CC3)[se]c2c2ccccc21 [Compound 5a, 1-(4-((3-Bromo-5-methyl-4-oxo-4,5-dihydroselenopheno[3,2-c]quinolin-2-yl)methyl)-1,4-diazepan-1-yl)-4-(4-(2-fluoro-5-((4-oxo-3,4-dihydrophthalazin-1-yl)methyl)benzoyl)piperazin-1-yl)butane-1,4-dione] | 3.1 ± 1 | 7.1 ± 2.7 | 4.6 ± 0.5 | > 100 | > 300 | 0.84 ± 0.16 | 480 ± 94 | 21.1 ± 3.94 | > 200 | –
Cn1c(=O)c2c(Br)c(CN3CCCN(C(=O)CCCCCCCCC(=O)N4CCN(C(=O)c5cc(Cc6n[nH]c(=O)c7ccccc67)ccc5F)CC4)CC3)[se]c2c2ccccc21 [Compound 5b, 1-(4-((3-Bromo-5-methyl-4-oxo-4,5-dihydroselenopheno[3,2-c]quinolin-2-yl)methyl)-1,4-diazepan-1-yl)-10-(4-(2-fluoro-5-((4-oxo-3,4-dihydrophthalazin-1-yl)methyl)benzoyl)piperazin-1-yl)decane-1,10-dione] | > 100 | 32.5 ± 1.6 | 13 ± 1.8 | > 100 | > 300 | 3.42 ± 0.12 | 860 ± 96 | 1.67 ± 0.03 | 172 to 174 | times more cytotoxic to MES-SA/Dx-5 than regular MES-SA cells [9]: ~20 times
Cn1c(=O)c2c(Br)c(CN3CCCN(C(=O)CCCCCCCCCCC(=O)N4CCN(C(=O)c5cc(Cc6n[nH]c(=O)c7ccccc67)ccc5F)CC4)CC3)[se]c2c2ccccc21 [Compound 5c, 1-(4-((3-Bromo-5-methyl-4-oxo-4,5-dihydroselenopheno[3,2-c]quinolin-2-yl)methyl)-1,4-diazepan-1-yl)-12-(4-(2-fluoro-5-((4-oxo-3,4-dihydrophthalazin-1-yl)methyl)benzoyl)piperazin-1-yl)dodecane-1,12-dione] | > 100 | > 100 | 147 ± 2.2 | > 100 | > 300 | 3.36 ± 0.11 | 549 ± 74 | 26.2 ± 0.03 | – | IC50 (PARP1; read-out: PARP1 IC50): 147 nM
COc1cccc2c1C(=O)c1c(O)c3c(c(O)c1C2=O)C[C@@](O)(C(=O)CO)C[C@@H]3O[C@H]1C[C@H](N)[C@H](O)[C@H](C)O1 [Doxorubicin, reference compound] | – | – | – | – | – | – | – | – | – | IC50 ([1]; Homo sapiens, HCC1937, 48 h, MTT, 48 h, BRCA1-deficient breast carcinoma, read-out: HCC1937, IC50): 1.08 ± 0.1 µM; IC50 ([2]; Homo sapiens, MES-SA, MTT, read-out: MES-SA, IC50): 0.084 ± 0.011 µM; IC50 ([4]; Homo sapiens, MCF7, 48 h, MTT, 48 h, read-out: MCF-7, IC50): 0.47 ± 0.14 µM; IC50 ([5]; H9c2, MTT, 48 h): 3.9 ± 0.6 µM; IC50 ([8]; MES-SA/Dx5, read-out: Doxorubicin IC50): 2.4 ± 0.41 µM
O=C(c1cc(Cc2n[nH]c(=O)c3ccccc23)ccc1F)N1CCN(C(=O)C2CC2)CC1 [Olaparib, reference compound] | – | – | – | – | – | – | – | > 100 | – | IC50 ([1]; Homo sapiens, HCC1937, 48 h, read-out: HCC1937, IC50): > 100 µM; IC50 ([2]; Homo sapiens, MES-SA, read-out: MES-SA, IC50): > 100 µM; IC50 ([4]; Homo sapiens, MCF7, 48 h, read-out: MCF-7, IC50): > 100 µM
